US8367632B2, “Methods for reverting methylation by targeting methyltransferases” (Ohio State University Research Foundation, priority 2007, dated 2013)

How the values were obtained:
Assay type in all cases: cell-based, human
DNMT3A 3′UTR = test: Luciferase reporter assay for targeting DNMT 3′UTRs (DNMT3A); conditions: A549 cells, 100 nM precursor miR, 24 h after transfection, with respect to the scrambled oligonucleotide
Text: (§1) To validate these miRNA-target interactions in vivo, the DNMT3A and DNTM3B complementary sites were cloned into the 3′UTR of the firefly luciferase gene and co-transfected with miR-29a, mi-R29b or miR-29c in […] (NSCLC) cells.
(§2) Luciferase reporter assay for targeting DNMT 3′UTRs. For luciferase reporter experiments a DNMT3A 3′UTR segment of 979 bp and a DNMT3B 3′UTR segment of 978 bp were amplified by PCR from human genomic DNA and inserted into the pGL3-control vector with SV40 promoter (Promega), using the XbaI site immediately […] from the stop codon of luciferase. The following sets of primers were used to generate specific fragments:
The amplified 3′UTR of DNMT3A contains an XbaI restriction site in position 583, so we cloned separately the upstream 3′UTR (DNMT3A 3′-UTRup=583 bp) and the downstream fragment (DNMT3A 3′-UTRdown=396 bp) into the pGL3 vectors. […]
A549 cells were co-transfected in 12-well plates by using Lipofectamine 2000 reagent (Invitrogen), according to the manufacturer's protocol, with 0.4 μg of the firefly luciferase report vector and 0.08 μg of the control vector containing Renilla luciferase pRL-TK vector (Promega). […] Firefly and Renilla luciferase activities were measured consecutively by using dual-luciferase assays (Promega), 24 h after the transfection. […]

FHIT mRNA = FHIT mRNA level by qRT-PCR; conditions: A549 cells, 48 h after transfection
Experimental: (§3) To characterize effects of the methylation changes on gene expression, the mRNA expression levels of two TSGs, FHIT and WWOX, which are frequently silenced by promoter methylation in lung cancer^14 were analyzed.
(§4) Quantitative RT-PCR. Quantitative RT-PCR (qRT-PCR) analysis for miRNA s was performed in triplicate with the TaqMan MicroRNA assays kit (Applied Biosystems, Foster City, Calif.), according to the manufacturer's instructions. 18S RNA was used for normalization; qRT-PCR analyses for other genes of interest were performed as previously described. RNA was reverse transcribed to cDNA with gene-specific primers and IQ SYBR Green Supermix (Biorad, Hercules, Calif.). GAPDH served as normalization control. For the silencing of miR-29s, A549 and H1299 cells were transfected in 6-well plates by using Lipofectamine 2000 reagent (Invitrogen), according to the manufacturer's protocol, with 100 nM (final) of antisense miR-29a, 29b-1, 29c or scrambled antisense miR (Fidelity Systems, Gaithersburg, Md.).

DNMT3B 3′UTR = test: Luciferase reporter assay for targeting DNMT 3′UTRs (DNMT3B); conditions: A549 cells, 100 nM precursor miR, 24 h after transfection, with respect to the scrambled oligonucleotide
Text: as §1
as §2, with “fragments: […]” for “fragments:”
A549 cells were co-transfected in 12-well plates by using Lipofectamine 2000 reagent (Invitrogen), according to the manufacturer's protocol, with 0.4 μg of the firefly luciferase report vector and 0.08 μg of the control vector containing Renilla luciferase pRL-TK vector (Promega). For each well, 100 nM (final) of precursor miR-29a, 29b-1, 29c or scrambled miR (Ambion) was used. Firefly and Renilla luciferase activities were measured consecutively by using dual-luciferase assays (Promega), 24 h after the transfection. The experiments were performed in triplicate.

WWOX mRNA = WWOX mRNA level by qRT-PCR; conditions: A549 cells, 48 h after transfection
Experimental: as §3, §4

Substance	luciferase activity (DNMT3A complementary site in 3′UTR of firefly luciferase) (DNMT3A 3′UTR)	increase of FHIT expression (mRNA) (FHIT mRNA) [%]	luciferase activity (DNMT3B complementary site in 3′UTR of firefly luciferase) (DNMT3B 3′UTR)	increase of WWOX mRNA level (WWOX mRNA) [%]
miR-29a: microRNA of the miR-29 family, SEQ ID NO: 1; transfected as precursor miR-29a (Ambion) (UAGCACCAUCUGAAAUCGGUU; listed as RNA, chemistry not given here)	significantly reduced	~65	significantly reduced	~40
miR-29c: microRNA of the miR-29 family, SEQ ID NO: 3; transfected as precursor miR-29c (Ambion) (UAGCACCAUUUGAAAUCGGU; listed as RNA, chemistry not given here)	significantly reduced	~74	significantly reduced	–
